Measured values as given in patent US6525001B1, “Substituted pyrimidine and pyridine herbicides” (Mid-American Commercialization Corporation, priority 1997, dated 2003).

Key:
Format in all cases: in vivo
Design in all cases: key: 0 is no effect; 10 is complete control
[1] = test system: bedstraw (Galium aparine); experiment: Test B pre-/postemergence
Description: (§1) Seeds of bedstraw (Galium aparine), blackgrass (Alopecurus myosuroides), broadleaf signalgrass (Brachiaria decumbens), cocklebur (Xanthium strumarium), corn (Zea mays), crabgrass (Digitaria sanguinalis), giant foxtail (Setaria faberii), lambsquarters (Chenopodium album), momingglory (Ipomoea hederacea), pigweed (Amaranthus retroflexus), rape (Brassica napus), soybean (Glycine max), sugar beet (Beta vulgaris), velvetleaf (Abutilon theophrasti), wheat (Triticum aestivum), wild oat (Avena fatua) and purple nutsedge (Cyperus rotundus) tubers were planted and treated preemergence with test chemicals formulated in a non-phytotoxic solvent mixture which included a surfactant.
(§2) At the same time, these crop and weed species were also treated with postemergence applications of test chemicals formulated in the same manner. Plants ranged in height from 2 to 18 cm (1- to 4-leaf stage) for postemergence treatments. Plant species in the flood test consisted of rice (Oryza sativa), smallflower flatsedge (Cyperus difformis), duck salad (Heteranthera limosa) and bamyardgrass (Echinochloa crus-galli) grown to the 2-leaf stage for testing. Treated plants and controls were maintained in a greenhouse for twelve to sixteen days, after which all species were compared to controls and visually evaluated. Plant response ratings, summarized in Table B, are based on a scale of 0 to 10 where 0 is no effect and 10 is complete control. A dash (−) response means no test result.

[2] = test system: blackgrass (Alopecurus myosuroides); experiment: Test B pre-/postemergence
Description: as §1, §2

[3] = test system: broadleaf signalgrass (Brachiaria decumbens); experiment: Test B pre-/postemergence
Description: as §1, §2

[4] = test system: cocklebur (Xanthium strumarium); experiment: Test B pre-/postemergence
Description: as §1, §2

corn (Zea mays) = experiment: Test B pre-/postemergence
Description: as §1, §2

[5] = test system: crabgrass (Digitaria sanguinalis); experiment: Test B pre-/postemergence
Description: as §1, §2

[6] = test system: giant foxtail (Setaria faberii); experiment: Test B pre-/postemergence
Description: as §1, §2

[7] = test system: momingglory (Ipomoea hederacea); experiment: Test B pre-/postemergence
Description: as §1, §2

[8] = test system: pigweed (Amaranthus retroflexus); experiment: Test B pre-/postemergence
Description: as §1, §2

[9] = test system: purple nutsedge (Cyperus rotundus); experiment: Test B pre-/postemergence
Description: as §1, §2

rape (Brassica napus) = experiment: Test B pre-/postemergence
Description: as §1, §2

soybean (Glycine max) = experiment: Test B pre-/postemergence
Description: as §1, §2

[10] = test system: sugar beet (Beta vulgaris); experiment: Test B pre-/postemergence
Description: as §1, §2

[11] = test system: velvetleaf (Abutilon theophrasti); experiment: Test B pre-/postemergence
Description: as §1, §2

[12] = test system: wheat (Triticum aestivum); experiment: Test B pre-/postemergence
Description: as §1, §2

wild oat (Avena fatua) = experiment: Test B pre-/postemergence
Description: as §1, §2

[13] = test system: bamyardgrass (Echinochloa crus-galli); experiment: Test B flood test
Procedure, shortened: (§3)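 Each value is a visual injury score relative to controls, with 10 meaning complete control and 0 no effect. Evaluation took place twelve to sixteen days after the 2-leaf-stage plants were treated and kept in the greenhouse.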

[14] = test system: duck salad (Heteranthera limosa); experiment: Test B flood test
Procedure, shortened: as §3

rice (Oryza sativa) = experiment: Test B flood test
Procedure, shortened: as §3

[15] = test system: smallflower flatsedge (Cyperus difformis); experiment: Test B flood test
Procedure, shortened: as §3

[16] = Rate 62 g/ha, Postemergence (flood test)
[17] = Rate 125 g/ha, Postemergence, flood test
[18] = Rate 250 g/ha, Postemergence (flood test species)

Cc1cnc(-c2ccc(C(F)(F)F)cc2)nc1C(C)c1cccc(C(F)(F)F)c1 (racemic) [Compound 19]
Plant response rating, Bedstraw ([1]; Rate 62 g/ha, Postemergence): 2
Bedstraw plant response rating ([1]; Rate 62 g/ha, Preemergence): 0
Plant response rating, Bedstraw ([1]; Rate 125 g/ha, Postemergence): 3
Bedstraw plant response rating ([1]; Rate 125 g/ha, Preemergence): 0
Plant response rating, Bedstraw ([1]; Rate 250 g/ha, Postemergence): 3
Plant response rating, Bedstraw ([1]; Rate 250 g/ha, Preemergence): 0
Plant response rating, Blackgrass ([2]; Rate 62 g/ha, Postemergence): 1
Blackgrass plant response rating ([2]; Rate 62 g/ha, Preemergence): 0
Plant response rating, Blackgrass ([2]; Rate 125 g/ha, Postemergence): 1
Blackgrass plant response rating ([2]; Rate 125 g/ha, Preemergence): 0
Plant response rating, Blackgrass ([2]; Rate 250 g/ha, Postemergence): 1
Plant response rating, Blackgrass ([2]; Rate 250 g/ha, Preemergence): 0
Plant response rating, B. signalgrass ([3]; Rate 62 g/ha, Postemergence): 1
B. signalgrass plant response rating ([3]; Rate 62 g/ha, Preemergence): 0
Plant response rating, B. signalgrass ([3]; Rate 125 g/ha, Postemergence): 2
B. signalgrass plant response rating ([3]; Rate 125 g/ha, Preemergence): 0
Plant response rating, B. signalgrass ([3]; Rate 250 g/ha, Postemergence): 2
Plant response rating, B. signalgrass ([3]; Rate 250 g/ha, Preemergence): 0
Plant response rating, Cocklebur ([4]; Rate 62 g/ha, Postemergence): 2
Cocklebur plant response rating ([4]; Rate 62 g/ha, Preemergence): 0
Plant response rating, Cocklebur ([4]; Rate 125 g/ha, Postemergence): 3
Plant response rating, Cocklebur ([4]; Rate 250 g/ha, Postemergence): 3
Plant response rating, Cocklebur ([4]; Rate 250 g/ha, Preemergence): 0
Plant response rating, Corn (corn (Zea mays); Rate 62 g/ha, Postemergence): 1
Corn plant response rating (corn (Zea mays); Rate 62 g/ha, Preemergence): 0
Plant response rating, Corn (corn (Zea mays); Rate 125 g/ha, Postemergence): 2
Corn plant response rating (corn (Zea mays); Rate 125 g/ha, Preemergence): 0
Plant response rating, Corn (corn (Zea mays); Rate 250 g/ha, Postemergence): 3
Plant response rating, Corn (corn (Zea mays); Rate 250 g/ha, Preemergence): 0
Plant response rating, Crabgrass ([5]; Rate 62 g/ha, Postemergence): 1
Crabgrass plant response rating ([5]; Rate 62 g/ha, Preemergence): 0
Plant response rating, Crabgrass ([5]; Rate 125 g/ha, Postemergence): 2
Crabgrass plant response rating ([5]; Rate 125 g/ha, Preemergence): 0
Plant response rating, Crabgrass ([5]; Rate 250 g/ha, Postemergence): 2
Plant response rating, Crabgrass ([5]; Rate 250 g/ha, Preemergence): 0
Plant response rating, Giant foxtail ([6]; Rate 62 g/ha, Postemergence): 0
Giant foxtail plant response rating ([6]; Rate 62 g/ha, Preemergence): 0
Plant response rating, Giant foxtail ([6]; Rate 125 g/ha, Postemergence): 0
Giant foxtail plant response rating ([6]; Rate 125 g/ha, Preemergence): 0
Plant response rating, Giant foxtail ([6]; Rate 250 g/ha, Postemergence): 1
Plant response rating, Giant foxtail ([6]; Rate 250 g/ha, Preemergence): 0
Plant response rating, Morningglory ([7]; Rate 62 g/ha, Postemergence): 3
Morningglory plant response rating ([7]; Rate 62 g/ha, Preemergence): 0
Plant response rating, Morningglory ([7]; Rate 125 g/ha, Postemergence): 3
Morningglory plant response rating ([7]; Rate 125 g/ha, Preemergence): 0
Plant response rating, Morningglory ([7]; Rate 250 g/ha, Postemergence): 6
Plant response rating, Morningglory ([7]; Rate 250 g/ha, Preemergence): 0
Plant response rating, Redroot pigweed ([8]; Rate 62 g/ha, Postemergence): 2
Redroot pigweed plant response rating ([8]; Rate 62 g/ha, Preemergence): 0
Plant response rating, Redroot pigweed ([8]; Rate 125 g/ha, Postemergence): 5
Redroot pigweed plant response rating ([8]; Rate 125 g/ha, Preemergence): 0
Plant response rating, Redroot pigweed ([8]; Rate 250 g/ha, Postemergence): 7
Plant response rating, Redroot pigweed ([8]; Rate 250 g/ha, Preemergence): 0
Plant response rating, Nutsedge ([9]; Rate 62 g/ha, Postemergence): 0
Nutsedge plant response rating ([9]; Rate 62 g/ha, Preemergence): 0
Plant response rating, Nutsedge ([9]; Rate 125 g/ha, Postemergence): 0
Nutsedge plant response rating ([9]; Rate 125 g/ha, Preemergence): 0
Plant response rating, Nutsedge ([9]; Rate 250 g/ha, Postemergence): 0
Plant response rating, Nutsedge ([9]; Rate 250 g/ha, Preemergence): 0
Plant response rating, Rape (rape (Brassica napus); Rate 62 g/ha, Postemergence): 2
Rape plant response rating (rape (Brassica napus); Rate 62 g/ha, Preemergence): 0
Plant response rating, Rape (rape (Brassica napus); Rate 125 g/ha, Postemergence): 2
Rape plant response rating (rape (Brassica napus); Rate 125 g/ha, Preemergence): 0
Plant response rating, Rape (rape (Brassica napus); Rate 250 g/ha, Postemergence): 3
Plant response rating, Rape (rape (Brassica napus); Rate 250 g/ha, Preemergence): 0
Plant response rating, Soybean (soybean (Glycine max); Rate 62 g/ha, Postemergence): 2
Soybean plant response rating (soybean (Glycine max); Rate 62 g/ha, Preemergence): 0
Plant response rating, Soybean (soybean (Glycine max); Rate 125 g/ha, Postemergence): 3
Soybean plant response rating (soybean (Glycine max); Rate 125 g/ha, Preemergence): 0
Plant response rating, Soybean (soybean (Glycine max); Rate 250 g/ha, Postemergence): 4
Plant response rating, Soybean (soybean (Glycine max); Rate 250 g/ha, Preemergence): 0
Plant response rating, Sugarbeets ([10]; Rate 62 g/ha, Postemergence): 2
Sugarbeets plant response rating ([10]; Rate 62 g/ha, Preemergence): 0
Plant response rating, Sugarbeets ([10]; Rate 125 g/ha, Postemergence): 4
Sugarbeets plant response rating ([10]; Rate 125 g/ha, Preemergence): 0
Plant response rating, Sugarbeets ([10]; Rate 250 g/ha, Postemergence): 6
Plant response rating, Sugarbeets ([10]; Rate 250 g/ha, Preemergence): 0
Plant response rating, Velvetleaf ([11]; Rate 62 g/ha, Postemergence): 1
Velvetleaf plant response rating ([11]; Rate 62 g/ha, Preemergence): 0
Plant response rating, Velvetleaf ([11]; Rate 125 g/ha, Postemergence): 2
Velvetleaf plant response rating ([11]; Rate 125 g/ha, Preemergence): 0
Plant response rating, Velvetleaf ([11]; Rate 250 g/ha, Postemergence): 2
Plant response rating, Velvetleaf ([11]; Rate 250 g/ha, Preemergence): 0
Plant response rating, Wheat ([12]; Rate 62 g/ha, Postemergence): 0
Wheat plant response rating ([12]; Rate 62 g/ha, Preemergence): 0
Plant response rating, Wheat ([12]; Rate 125 g/ha, Postemergence): 0
Wheat plant response rating ([12]; Rate 125 g/ha, Preemergence): 0
Plant response rating, Wheat ([12]; Rate 250 g/ha, Postemergence): 0
Plant response rating, Wheat ([12]; Rate 250 g/ha, Preemergence): 0
Plant response rating, Wild oats (wild oat (Avena fatua); Rate 62 g/ha, Postemergence): 0
Wild oats plant response rating (wild oat (Avena fatua); Rate 62 g/ha, Preemergence): 0
Plant response rating, Wild oats (wild oat (Avena fatua); Rate 125 g/ha, Postemergence): 1
Wild oats plant response rating (wild oat (Avena fatua); Rate 125 g/ha, Preemergence): 0
Plant response rating, Wild oats (wild oat (Avena fatua); Rate 250 g/ha, Postemergence): 2
Plant response rating, Wild oats (wild oat (Avena fatua); Rate 250 g/ha, Preemergence): 0
Plant response rating, Barnyardgrass [13, 16]: 0
Plant response rating, Barnyardgrass [13, 17]: 2
Plant response rating, Barnyardgrass [13, 18]: 3
Plant response rating, Ducksalad [14, 16]: 0
Plant response rating, Ducksalad [14, 17]: 2
Plant response rating, Ducksalad [14, 18]: 7
Plant response rating, Rice (rice (Oryza sativa); [16]): 0
Plant response rating, Rice (rice (Oryza sativa); [17]): 0
Plant response rating, Rice (rice (Oryza sativa); [18]): 2
Plant response rating, S. Flatsedge [15, 16]: 0
Plant response rating, S. Flatsedge [15, 17]: 2
Plant response rating, S. Flatsedge [15, 18]: 6
